Where a name gives a salt, the structure may show the parent alone.
How the values were obtained:
[1] = biological target: T1, tubulin (Sus scrofa, UniProt P02550+P02554); test: Evaluation of the inhibition of tubulin polymerization (turbidimetry); format: biochemical, pig; conditions: tubulin 10 μm (1 mg/ml), 37° C., turbidity at 350 nm; concentration that inhibits the rate of polymerization by 50%; read-out: Inhibition of tubulin polymerization IC 50 (μm)
T1 construct: Tubulin is purified from pig brain according to published methods; from tissue; host or cells: pig brain
Method in brief: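 Pig brain tubulin (>95% pure), 10 μm in MES pH 6.8/30% glycerol buffer plus 1 mM GTP and 6 mM MgCl2, with compound at 0.5–10 μm added before polymerization. Polymerization triggered by shift from 6° C to 37° C, followed by turbidity at 350 nm; IC50 is 50% inhibition of polymerization rate.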

[2] = tested on: HCT116 cells; test: Inhibition of proliferation of the human colon tumor line HCT116 ([14C]-thymidine incorporation); format: cell-based; conditions: Homo sapiens, HCT-116, 48 h, 48 hours at 37° C., read-out: Inhibition of HCT116 proliferation IC 50 (μm)
Method in brief: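 HCT116 cells (5000/well) in DMEM with 10% fetal calf serum incubated 48 h at 37° C with [14C]-thymidine (0.1 μCi/well) and compound up to 10 μm (DMSO ≤0.5%). Incorporated radioactivity counted; IC50 is concentration cutting radioactivity by 50% versus untreated control.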

T1 sequence (P02550 whole entry): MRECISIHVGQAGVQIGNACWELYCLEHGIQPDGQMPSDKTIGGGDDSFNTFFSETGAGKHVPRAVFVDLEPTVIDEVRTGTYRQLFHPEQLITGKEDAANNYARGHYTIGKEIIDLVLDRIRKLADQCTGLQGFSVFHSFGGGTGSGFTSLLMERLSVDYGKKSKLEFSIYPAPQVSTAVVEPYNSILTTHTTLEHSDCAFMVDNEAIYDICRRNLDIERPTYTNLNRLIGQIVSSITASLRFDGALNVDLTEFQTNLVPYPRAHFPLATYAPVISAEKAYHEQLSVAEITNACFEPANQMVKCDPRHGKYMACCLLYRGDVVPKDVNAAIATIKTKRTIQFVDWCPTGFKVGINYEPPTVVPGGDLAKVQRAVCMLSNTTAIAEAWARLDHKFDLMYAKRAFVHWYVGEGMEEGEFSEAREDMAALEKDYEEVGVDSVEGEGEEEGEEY
T1 sequence (P02554 whole entry): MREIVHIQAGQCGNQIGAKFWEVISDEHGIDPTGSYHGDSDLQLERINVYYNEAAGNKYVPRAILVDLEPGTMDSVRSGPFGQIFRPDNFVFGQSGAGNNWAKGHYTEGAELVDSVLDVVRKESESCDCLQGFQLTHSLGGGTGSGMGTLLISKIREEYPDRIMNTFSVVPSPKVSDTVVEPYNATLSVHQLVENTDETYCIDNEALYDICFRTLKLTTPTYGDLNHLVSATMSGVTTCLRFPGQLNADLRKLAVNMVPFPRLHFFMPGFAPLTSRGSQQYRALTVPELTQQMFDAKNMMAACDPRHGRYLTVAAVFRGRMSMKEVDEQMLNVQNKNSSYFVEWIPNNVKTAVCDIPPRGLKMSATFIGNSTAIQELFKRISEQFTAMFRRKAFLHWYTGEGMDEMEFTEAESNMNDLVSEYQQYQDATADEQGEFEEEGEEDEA

Row | SMILES | IC50 [1] [nM] | IC50 [2] [nM]
1 | CC(=O)Nc1cccc(N2CCN(C(=O)c3cc(C)nn3-c3ccccc3)CC2)c1 [Example E18, N-{3-[4-(5-methyl-2-phenyl-2H-pyrazole-3-carbonyl)piperazin-1-yl]phenyl}-acetamide] | 1200 | 59.5
2 | O=Cc1cc(C(=O)N2CCN(c3cccc(Cl)c3)CC2)n(-c2ccccc2)n1 [Example E70, 5-[4-(3-Chlorophenyl)piperazine-1-carbonyl]-1-phenyl-1H-pyrazole-3-carboxaldehyde] | 1300 | 10.8
3 | COc1ccc(Cl)cc1N1CCN(C(=O)c2cc(C)nn2-c2ccc(Cl)cc2)CC1 [3/75] | 17000 | 468
4 | Cc1cc(C(=O)N2CCN(c3ccccc3C(F)(F)F)CC2)n(-c2ccccc2F)n1 [3/145] | 10000 | 1510
5 | Cc1cc(C(=O)N2CCN(c3cccc(NCCO)c3)CC2)n(-c2ccccc2)n1 [Example E103, {4-[3-(2-Hydroxyethylamino)phenyl]piperazin-1-yl}-(5-methyl-2-phenyl-2H-pyrazol-3-yl)methanone] | 1000 | 16.7
6 | Cc1cc(C(=O)N2CCN(c3cccc(C)c3C)CC2)n(-c2cccc(F)c2)n1 [3/94] | 800 | 32
7 | Cc1cccc(N2CCN(C(=O)c3cc(C)nn3-c3ccccc3F)CC2)c1 [3/16] | 6000 | 224
8 | CNCCNC(=O)c1cccc(N2CCN(C(=O)c3cc(C)nn3-c3ccccc3)CC2)c1 [Example E110, N-(2-Methylaminoethyl)-3-[4-(5-methyl-2-phenyl-2H-pyrazole-3-carbonyl)piperazin-1-yl]benzamide] | 12000 | 1170
9 | Cc1cccc(N2CCN(C(=O)c3cc(C)nn3-c3ccc(Cl)cc3)CC2)c1 [3/74] | 7500 | 298
10 | Cc1cc(C(=O)N2CCN(c3ccc(Cl)c(Cl)c3)CC2)n(-c2cccc(Cl)c2)n1 [3/65] | 1300 | 73
11 | Cc1cccc(N2CCN(C(=O)c3cc(C)nn3-c3cccc(F)c3)CC2)c1 [3/19] | 1800 | 17
12 | Cc1cc(C(=O)N2CCN(c3ccccc3)CC2)n(-c2ccc(F)cc2)n1 [3/101] | 5000 | 569
13 | Cc1cc(C(=O)N2CCN(c3cccc4ccccc34)CC2)n(-c2ccccc2F)n1 [3/143] | 2500 | 140
14 | Cc1cc(C(=O)N2CCN(c3cccc(NCc4ccccc4)c3)CC2)n(-c2ccccc2)n1 [Example E32, [4-(3-Phenylmethylaminophenyl)piperazin-1-yl](5-methyl-2-phenyl-2H-pyrazol-3-yl)methanone hydrochloride] | 3100 | 514
15 | COc1cc(OC)cc(N2CCN(C(=O)c3cc(N)nn3-c3ccccc3)CC2)c1 [Example E99, (5-Amino-2-phenyl-2H-pyrazol-3-yl)[4-(3,5-dimethoxyphenyl)piperazin-1-yl]methanone] | 1000 | 2.4
16 | O=C(c1cc(COCc2ccccc2)nn1-c1ccccc1)N1CCN(c2cccc(Cl)c2)CC1 [Example E80, (5-Benzyloxymethyl-2-phenyl-2H-pyrazol-3-yl)[4-(3-chlorophenyl)piperazin-1-yl]methanone] | 4400 | 1130
17 | Cc1cc(C(=O)N2CCN(c3cccc(Cl)c3)CC2)n(-c2ccccn2)n1 [Example E22, [4-(3-Chlorophenyl)piperazin-1-yl](5-methyl-2-pyrid-2-yl-2H-pyrazol-3-yl)-methanone] | 1900 | 6.4
18 | Cc1cc(C(=O)N2CCN(c3cccc(C(F)(F)F)c3)CC2)n(-c2ccc(F)cc2)n1 [3/23] | 3000 | 434
19 | Cc1ccc(-n2nc(C)cc2C(=O)N2CCN(c3ccc(Cl)c(Cl)c3)CC2)cc1 [3/76] | 3000 | 1080
20 | COc1cc(OC)cc(N2CCN(C(=O)c3cccn3-c3ccccc3)CC2)c1 [Example E51, [4-(3,5-Dimethoxyphenyl)piperazin-1-yl](1-phenyl-1H-pyrrol-2-yl)methanone hydrochloride] | 1300 | 2300

— US20050130989A1, “N-arylheteroaromatic products compositions containing them and use thereof” (Aventis Pharma S. A., priority 2003, published 2005)
